According to patent publication US8080654B2, “Macrocyclic quinoxaline compounds as HCV NS3 protease inhibitors” (Insituto di Ricerche di Biologia Molecolare P. Angeletti SpA, priority 2008, dated 2011):
Entries after “also recorded” stand apart in the source; their conditions may differ. Like-named read-outs stand apart in the source and are kept apart here. One block for each compound: values may come before it.

Legend:
[1] = Physical properties: equilibrium solubility and salt disproportionation (XRPD, NMR); format: physicochemical
Protocol: After centrifuging, the supernatant was analyzed by reversed-phase HPLC and the equilibrium solubility determined by comparison with a calibration curve. The solid material was in part transferred onto an XRPD plate, dried and then analyzed by X-Ray Powder Diffraction. The XRPD pattern was compared with positive controls for crystalline K+ salt, crystalline zwitterionic (or acidic) and amorphous forms of the test compound.

[2] = In vivo covalent protein binding of 3H-labelled compound; conditions: Rat @ 6 h, 20 mg/kg oral
Protocol: In-Vivo Covalent Binding^4: […] Plasma and liver were collected and flash frozen/stored at −80° C. before analysis. Counting of the plasma samples: Place a 200 μL aliquot in a 20 mL scintillation vial. Add 500 μL of SOLVABLE™ and incubate at 1 h with shaking at 55° C. Remove, allow to cool prior to the addition of 15 mL scintillation cocktail, and count. […] Tissue homogenization: […] Counting of the liver homogenate: Aliquots were placed in a 20 mL scintillation vial, diluted with 1 mL of SOLVABLE™ and incubated for 1 h with shaking at 55° C. After removal from the incubator and cooling 15 mL scintillation cocktail and 30% H2O2 were added and the radioactivity counted. Protein precipitation: […] Protein precipitate resuspension: Sonication (minimal intensity, <5 sec) and vortexing until the pellet crumbles in 80% MeOH:20% water. Wash of the protein pellet: 2-5 mL 80:20 MeOH:water. If needed, remove 1.0 mL of the supernatant, add 15 mL of scintillation cocktail and count. Continue to wash the protein pellet until radioactivity in supernatant is <200 DPM or DPMs cease to decrease by more than 200 in consecutive washes. Dissolution of the final pellet: 1 mL of 1 N NaOH or Solvable™, incubated at 50° C. overnight or until completely dissolved. Counting of the final pellet: 1 mL of dissolved pellet, 15 mL scintillation cocktail (if another scintillation cocktail other than ULTIMA GOLD™ is used, pellet may require neutralization using 1 N HCl), and count. Protein concentration of the final pellet: BCA or BIO-RAD kit using BSA as a standard. Counting blank samples: 15 mL scintillation cocktail, in duplicate. Counting of the dosing solution: count a known volume of the dosing solution in triplicate. Data Analysis: Average the radioactivity counts (DPM) of the dosing solution and calculate the specific activity of the dosing solution in μCi/mol. Average the radioactivity counts of the blank samples. Subtract the counts of the averaged blank sample from the counts obtained from each liver and plasma pellet. Calculate the amount of radioactivity (μCi) per unit volume (L) for each liver and plasma pellet. Calculate the concentration of radioactivity in each plasma and liver pellet by dividing the value obtained above (μCi/L) by the specific activity (μCi/mol). Calculate the amount of covalently bound radioactivity to protein in pmol/mg protein.

[3] = Rat pharmacokinetics per os (plasma AUC, liver concentration)
Protocol: (§1) Plasma samples were collected at time points between 2 minutes and 24 h, and compound levels were determined by RP-HPLC. Liver samples were collected post mortem in rat and following anesthesia (0.5 h prior to biopsy) in dog. Liver samples were weighed, homogenized, and diluted using techniques known to those skilled in the art, and compound levels were determined by RP-HPLC.
(§2) Pharmacokinetic parameters were calculated based on non-compartmental analysis (e.g., using WATSON®, WINNOLIN®). Predose concentrations that were below the limit of quantitation (BLQ) were assigned a value of 0. […] AUC values were calculated using linear trapezoidal method for ascending concentrations and the log trapezoidal method for descending concentrations.

[4] = Dog pharmacokinetics per os (plasma AUC, liver concentration)
Protocol: as §1, §2

NS 3/4A 1b = NS 3/4A 1b (Hepatitis C virus genotype 1b, UniProt P26663); experiment: biochemical; conditions: genotype 1b enzyme; read-out: NS 3/4A Inhibitory Activity (Ki) lb
Protocol: A NS3 protease assay can be performed, for example, in a final volume of 100 μl assay buffer containing 50 mM HEPES, pH 7.5, 150 mM NaCl, 15% glycerol, 0.15% TRITON X-100, 10 mM DTT, and 0.1% PEG 8000. NS3 and NS4A protease is pre-incubated with various concentrations of inhibitors in DMSO for 30 minutes. The reaction is initiated by adding the TRF peptide substrate (final concentration 100 nM). NS3 mediated hydrolysis of the substrate is quenched after 1 hour at room temperature with 100 μl of 500 mM MES, pH 5.5. […] IC50 values are derived using a standard four-parameter fit to the data. […] See P. Gallinari et al., 38 BIOCHEM. […] BIOCHEM. […] V. General Compound Production
(§3) NS 3/4A Inhibitory Activity^1 (Ki): NS 3/4A Inhibitory Activity was determined as described in Section IV.

HCV replicon gt1b = experiment: HCV replicon activity, genotype 1b; format: cell-based; conditions: Hepatitis C virus; genotype 1b replicon; 50% viral replication suppression; read-out: Replicon Activity EC50 gtlb
1b mutant enzyme R155K = 1b mutant enzyme R155K (Hepatitis C virus genotype 1b, UniProt P26663, R1181K); experiment: NS3/4A TRF enzyme assay, 1b mutant R155K; format: biochemical, hepatitis C virus (HCV)
Protocol: (§4) A NS3 protease assay can be performed, for example, in a final volume of 100 μl assay buffer containing 50 mM HEPES, pH 7.5, 150 mM NaCl, 15% glycerol, 0.15% TRITON X-100, 10 mM DTT, and 0.1% PEG 8000. NS3 and NS4A protease is pre-incubated with various concentrations of inhibitors in DMSO for 30 minutes. The reaction is initiated by adding the TRF peptide substrate (final concentration 100 nM). NS3 mediated hydrolysis of the substrate is quenched after 1 hour at room temperature with 100 μl of 500 mM MES, pH 5.5. […] Testing concentrations of different enzyme forms are selected to result in a signal to background ratio (S/B) of 10-30. IC50 values are derived using a standard four-parameter fit to the data. Ki values are derived from IC50 values using the following formula, IC50=Ki(1+[S]/KM), Eqn (1), where [S] is the concentration of substrate peptide in the reaction and KM is the Michaelis constant. See P. Gallinari et al., 38 BIOCHEM. […] BIOCHEM. […] V. General Compound Production
as §3

1b mutant enzyme D168Y = 1b mutant enzyme D168Y (Hepatitis C virus genotype 1b, UniProt P26663, D1194Y); experiment: NS3/4A TRF enzyme assay, 1b mutant D168Y; format: biochemical, hepatitis C virus (HCV)
Protocol: as §4, §3

1b mutant enzyme A156T = 1b mutant enzyme A156T (Hepatitis C virus genotype 1b, UniProt P26663, A1182T); experiment: NS3/4A TRF enzyme assay, 1b mutant A156T; format: biochemical, hepatitis C virus (HCV)
Protocol: as §4, §3

1b mutant enzyme D168T = 1b mutant enzyme D168T (Hepatitis C virus genotype 1b, UniProt P26663, D1194T); experiment: NS3/4A TRF enzyme assay, 1b mutant D168T; format: biochemical, hepatitis C virus (HCV)
Protocol: as §4, §3

1b mutant enzyme A156S = 1b mutant enzyme A156S (Hepatitis C virus genotype 1b, UniProt P26663, A1182S); experiment: NS3/4A TRF enzyme assay, 1b mutant A156S; format: biochemical, hepatitis C virus (HCV)
Protocol: as §4, §3

1b mutant enzyme R155G = 1b mutant enzyme R155G (Hepatitis C virus genotype 1b, UniProt P26663, R1181G); experiment: NS3/4A TRF enzyme assay, 1b mutant R155G; format: biochemical, hepatitis C virus (HCV)
Protocol: as §4, §3

1b mutant enzyme R155Q = 1b mutant enzyme R155Q (Hepatitis C virus genotype 1b, UniProt P26663, R1181Q); experiment: NS3/4A TRF enzyme assay, 1b mutant R155Q; format: biochemical, hepatitis C virus (HCV)
Protocol: as §4, §3

1b mutant enzyme D168Q = 1b mutant enzyme D168Q (Hepatitis C virus genotype 1b, UniProt P26663, D1194Q); experiment: NS3/4A TRF enzyme assay, 1b mutant D168Q; format: biochemical, hepatitis C virus (HCV)
Protocol: as §4, §3

1b mutant enzyme D168G = 1b mutant enzyme D168G (Hepatitis C virus genotype 1b, UniProt P26663, D1194G); experiment: NS3/4A TRF enzyme assay, 1b mutant D168G; format: biochemical, hepatitis C virus (HCV)
Protocol: as §4, §3

1b mutant enzyme D168A = 1b mutant enzyme D168A (Hepatitis C virus genotype 1b, UniProt P26663, D1194A); experiment: NS3/4A TRF enzyme assay, 1b mutant D168A; format: biochemical, hepatitis C virus (HCV)
Protocol: as §4, §3

1b mutant enzyme D168V = 1b mutant enzyme D168V (Hepatitis C virus genotype 1b, UniProt P26663, D1194V); experiment: NS3/4A TRF enzyme assay, 1b mutant D168V; format: biochemical, hepatitis C virus (HCV)
Protocol: as §4, §3

1b mutant enzyme A156V = 1b mutant enzyme A156V (Hepatitis C virus genotype 1b, UniProt P26663, A1182V); experiment: NS3/4A TRF enzyme assay, 1b mutant A156V; format: biochemical, hepatitis C virus (HCV)
Protocol: as §4, §3

1b mutant enzyme D168E = 1b mutant enzyme D168E (Hepatitis C virus genotype 1b, UniProt P26663, D1194E); experiment: NS3/4A TRF enzyme assay, 1b mutant D168E; format: biochemical, hepatitis C virus (HCV)
Protocol: as §4, §3

1b mutant enzyme R155N = 1b mutant enzyme R155N (Hepatitis C virus genotype 1b, UniProt P26663, R1181N); experiment: NS3/4A TRF enzyme assay, 1b mutant R155N; format: biochemical, hepatitis C virus (HCV)
Protocol: as §4, §3

- Covalent Protein Binding In Vivo, liver [2]: liver = 24 pmol eq./mg
- Covalent Protein Binding In Vivo, plasma [2]: plasma = 6 pmol eq./mg
Structure (SMILES): C=C[C@@H]1C[C@]1(NC(=O)[C@@H]1C[C@@H]2CN1C(=O)[C@H](C(C)(C)C)NC(=O)O[C@@H]1CCC[C@H]1CCCCCc1nc3ccc(OC)cc3cc1O2)C(=O)NS(=O)(=O)C1CC1 [WO 2008/057209 Example 103]

- Covalent Protein Binding In Vivo, liver [2]: liver = 38 pmol eq./mg
- Covalent Protein Binding In Vivo, plasma [2]: plasma = 15 pmol eq./mg
Structure (SMILES): C=C[C@@H]1C[C@]1(NC(=O)[C@@H]1C[C@@H]2CN1C(=O)[C@H](C1CCCC1)NC(=O)O[C@@H]1CCC[C@H]1CCCCCc1nc3ccccc3nc1O2)C(=O)NS(=O)(=O)C1CC1 [WO 2008/057209 Example 108]

The next lines start with the compound.

Structure (SMILES): C=C[C@@H]1C[C@]1(NC(=O)[C@@H]1C[C@@H]2CN1C(=O)[C@H](C(C)(C)C)NC(=O)O[C@@H]1C[C@H]1CCCCCc1nc3ccc(OC)cc3nc1O2)C(=O)[N-]S(=O)(=O)C1CC1.[K+] [Example 1, Potassium {[(1R,2S)-1-({[(1aR,5S,8S,10R,22aR)-5-tert-butyl-14-methoxy-3,6-dioxo-1,1a,3,4,5,6,9,10,18,19,20,21,22,22a-tetradecahydro-8H-7,10-methanocyclopropa[18,19][1,10,3,6]dioxadiazacyclononadecino[11,12-b]quinoxalin-8-yl]carbonyl}amino)-2-vinylcyclopropyl]carbonyl}(cyclopropylsulfonyl)azanide]
- solubility at 24 h ([1]; thermodynamic from solid; K+ salt form, water; read-out: Aqueous solubility of K+ salt form): 1800 µg/mL
- Covalent Protein Binding In Vivo, liver ([2]; LOQ = 3 pmol/mg): liver = LOQ
- Covalent Protein Binding In Vivo, plasma ([2]; LOQ = 3 pmol/mg, 20 mg/kg): undetectable binding; also recorded: plasma = LOQ,
- Rat Liver Concentration @ 24 h (25 mpk per os) ([3]; 25 mpk per os): 27.9 µM
- Rat Plasma AUC @ 25mpk per os ([3]; 25 mpk per os, plasma): 20.6 µM·h
- Dog Liver Concentration @ 24 h (5mpk per os) ([4]; 5 mpk per os): 120 µM
- Dog Plasma AUC @ 5mpk per os ([4]; 5 mpk per os, plasma): 48.6 µM·h

Structure (SMILES): C=C[C@@H]1C[C@]1(NC(=O)[C@@H]1C[C@@H]2CN1C(=O)[C@H](C(C)(C)C)NC(=O)O[C@@H]1C[C@H]1CCCCCc1nc3ccc(OC)cc3cc1O2)C(=O)NS(=O)(=O)C1CC1 [WO 2008/057209 Example 110]
- solubility at 24 h ([1]; water, thermodynamic from solid, K+ salt form, read-out: Aqueous solubility of K+ salt form): 9700 µg/mL
- solubility at 24 h ([1]; water, thermodynamic from solid, crystalline zwitterionic form from disproportionation of the K+ salt, read-out: Aqueous solubility of crystalline zwitterionic form): < 9 µg/mL
- Ki (NS 3/4A 1b): < 0.016 nM
- Covalent Protein Binding In Vivo, liver ([2]; LOQ = 3 pmol/mg): liver = BLQ
- Covalent Protein Binding In Vivo, plasma ([2]; LOQ = 3 pmol/mg): plasma = BLQ,
- Rat Liver Concentration @ 24 h (25 mpk per os) ([3]; 25 mpk per os): 8.5 µM
- AUC ([3]; plasma, po, 25 mg/kg): 5.8 µM·h
- Dog Liver Concentration @ 24 h (5mpk per os) ([4]; 5 mpk per os): 3.3 µM
- AUC ([4]; plasma, po, 5 mg/kg): 1 µM·h
- EC50 (HCV replicon gt1b): 5 nM

Structure (SMILES): C=C[C@@H]1C[C@]1(NC(=O)[C@@H]1C[C@@H]2CN1C(=O)[C@H](C(C)(C)C)NC(=O)O[C@@H]1CCC[C@H]1CCCCCc1nc3ccc(OC)cc3nc1O2)C(=O)NS(=O)(=O)C1CC1 [WO 2008/057209 Example 118]
- Ki (1b mutant enzyme R155K): 0.08 nM
- Ki (1b mutant enzyme D168Y): 1.5 nM
- Ki (NS 3/4A 1b): < 0.016 nM
- Ki (1b mutant enzyme A156T): 3.4 nM
- Ki (1b mutant enzyme D168T): 0.78 nM
- Ki (1b mutant enzyme A156S): 0.1 nM
- Ki (1b mutant enzyme R155G): 2.3 nM
- Ki (1b mutant enzyme R155Q): 1.9 nM
- EC50 (HCV replicon gt1b): 3 nM
- Ki (1b mutant enzyme D168Q): 0.42 nM
- Ki (1b mutant enzyme D168G): 0.45 nM
- Ki (1b mutant enzyme D168A): 0.86 nM
- Ki (1b mutant enzyme D168V): 0.65 nM
- Ki (1b mutant enzyme A156V): 15 nM
- Ki (1b mutant enzyme D168E): 0.12 nM
- Ki (1b mutant enzyme R155N): 0.56 nM

Structure (SMILES): C=C[C@@H]1C[C@]1(NC(=O)[C@@H]1C[C@@H]2CN1C(=O)[C@H](C1CCCC1)NC(=O)O[C@@H]1CCC[C@H]1CCCCCc1nc3ccccc3cc1O2)C(=O)NS(=O)(=O)C1CC1 [WO 2008/057209 Example 96]
- Covalent Protein Binding In Vivo, liver [2]: liver = 63 pmol eq./mg
- Covalent Protein Binding In Vivo, plasma [2]: plasma = 6 pmol eq./mg
